Source: article PMC6838683, “Discovery of Human Signaling Systems: Pairing Peptides to G Protein-Coupled Receptors” (Cell, 2019)
Like-named read-outs stand apart in the source and are kept apart here. Residues, ends and D or L forms follow the SMILES beside them.

Tests used:
Type in all cases: cell-based
BB3 [1] = molecular target: T1, BB3 (Homo sapiens, UniProt P32247); experiment: Dynamic mass redistribution (DMR), concentration-response; conditions: mean, SEM and n (3)
T1 construct: hIL-2Ra signal peptide (N); expressed in transfected cells
T1 sequence (P32247 2-399 limits assumed): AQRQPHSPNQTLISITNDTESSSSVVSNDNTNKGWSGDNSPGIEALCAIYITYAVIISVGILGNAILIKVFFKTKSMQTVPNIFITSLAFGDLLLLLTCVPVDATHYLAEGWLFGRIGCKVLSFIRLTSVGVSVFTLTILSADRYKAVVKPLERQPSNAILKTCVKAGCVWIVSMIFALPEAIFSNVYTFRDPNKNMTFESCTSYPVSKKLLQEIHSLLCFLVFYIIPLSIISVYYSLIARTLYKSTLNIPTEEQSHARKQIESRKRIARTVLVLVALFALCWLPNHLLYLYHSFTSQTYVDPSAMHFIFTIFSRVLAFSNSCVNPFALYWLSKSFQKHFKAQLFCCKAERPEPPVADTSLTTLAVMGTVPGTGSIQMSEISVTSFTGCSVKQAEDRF

BB3 [2] = molecular target: T1, BB3; experiment: Real-time receptor internalization (TR-FRET), concentration-response
BB3 [3] = molecular target: T1, BB3; experiment: IP1 accumulation (Gq/11), HTRF; conditions: mean, SEM and n (2-4)
GPR55 = GPR55 (Homo sapiens, UniProt Q9Y2T6); experiment: Real-time receptor internalization (TR-FRET), concentration-response; set-up: hIL-2Ra signal peptide (N); expressed in transfected cells
Method: 48 hr prior to parallel assaying, SNAP-tagged oGPCR cells were plated (10,000 cells/well) in fibronectin-coated 384-well Epic biosensor microplates (Corning) and poly-D-lysine coated white 384-well plates (for internalization assays). SNAP- GLP-1 receptor was plated alongside orphan receptor cells as an internal assay control for internalization assays. Receptor-expression was induced with 0.1 μg/ml doxycycline.
A TR-FRET real-time internalization assay was used to examine peptide-dependent changes in orphan receptor localization as described previously ([Foster and Bräuner-Osborne, 2018]). Surface-expressed SNAP-tagged receptors were labeled with a cell-impermeable luminescent terbium cryptate (100 nM SNAP Lumi4-Tb; Cisbio, France) for 1 hr at 37°C. Cells were washed to remove excess terbium and incubated with fluorescein-O-acetic acid (100 μM; Sigma Aldrich) for 5 min at 37°C. Peptides were added as for DMR assays, and internalization responses were recorded for 60 min at 37°C using an EnVision 2104 Multimode plate reader (PerkinElmer). 100 nM GLP-1 was used as a positive control for SNAP-GLP1R internalization. Real-time internalization responses were calculated based on TR-FRET (excitation 340 nm; emission 520 nm and 615 nm), and were expressed as the ratio between donor (terbium) and acceptor (fluorescein) emission. For peptide screening analysis (both DMR and internalization assays), we calculated the area under the curve from the real-time traces. […] Validation experiments for receptor internalization were performed as above. Internalization data was processed in MS-Excel and area under the curve was used to generate concentration-response curves using GraphPad Prism 7.0. Data represent mean ± standard error of the mean (SEM) from at least 3 biologically independent experiments.

[4] = receptor BB3, mean, SEM and n (3), read-out: Internalization assays pEC50 (converted)
[5] = IP1 accumulation assays pEC50, receptor BB3
[6] = receptor BB3, read-out: DMR assays pEC50 (converted)
[7] = receptor BB3, read-out: IP1 accumulation assays pEC50 (converted)
[8] = receptor GPR55, mean, SEM and n (3-4), read-out: Internalization assays pEC50 (converted)

GPR55, sequence (Q9Y2T6 2-319 limits assumed): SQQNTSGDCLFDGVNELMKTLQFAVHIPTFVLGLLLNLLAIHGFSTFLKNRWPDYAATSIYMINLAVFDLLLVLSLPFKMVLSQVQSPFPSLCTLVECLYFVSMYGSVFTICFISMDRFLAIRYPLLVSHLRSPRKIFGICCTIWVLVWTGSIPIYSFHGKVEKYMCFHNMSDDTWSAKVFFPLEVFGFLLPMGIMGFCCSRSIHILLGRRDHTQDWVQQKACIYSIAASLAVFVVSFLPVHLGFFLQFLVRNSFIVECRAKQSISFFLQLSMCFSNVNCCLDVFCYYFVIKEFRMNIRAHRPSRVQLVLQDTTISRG

## CSCC[C@H](NC(=O)[C@H](Cc1ccccc1)NC(=O)[C@H](Cc1cnc[nH]1)NC(=O)CNC(=O)[C@@H](NC(=O)[C@H](C)NC(=O)[C@H](Cc1c[nH]c2ccccc12)NC(=O)[C@H](CC(C)C)NC(=O)[C@H](CC(N)=O)NC(=O)CN)[C@@H](C)O)C(N)=O [59 resynthesized]
BB3 [1]; DMR assays pEC50, receptor BB3
  EC50: 27.5 nM
BB3 [2]; [4]
  EC50: 1550 nM
BB3 [3]; [5]
  EC50: 525 nM

## CC[C@H](C)[C@H](NC(=O)[C@H](CCCCN)NC(=O)[C@H](CO)NC(=O)[C@H](C)NC(=O)[C@H](CCCNC(=N)N)NC(=O)[C@H](CO)NC(=O)[C@H](CCCNC(=N)N)NC(=O)[C@@H]1CCCN1C(=O)[C@H](CCC(=O)O)NC(=O)[C@@H]1CCCN1C(=O)[C@H](CC(C)C)NC(=O)[C@H](CC(=O)O)NC(=O)[C@H](Cc1c[nH]c2ccccc12)NC(=O)[C@H](CO)NC(=O)[C@H](CC(C)C)NC(=O)[C@@H]1CCCN1C(=O)[C@H](C)N)C(=O)N[C@@H](CCCNC(=N)N)C(=O)N[C@H](C(=O)N[C@@H](Cc1c[nH]cn1)C(=O)N[C@@H](CO)C(=O)N[C@@H](CCCNC(=N)N)C(=O)NCC(=O)N[C@@H](CC(N)=O)C(=O)N[C@@H](CC(C)C)C(=O)N[C@@H](Cc1c[nH]c2ccccc12)C(=O)N[C@@H](C)C(=O)N[C@H](C(=O)NCC(=O)N[C@@H](Cc1c[nH]cn1)C(=O)N[C@@H](Cc1ccccc1)C(=O)N[C@@H](CCSC)C(N)=O)[C@@H](C)O)C(C)C [59.1 (Phoenix)] (H-APLSWDLPEPRSRASKIRVHSRGNLWATGHFM-NH2)
BB3 [1]; [6]
  EC50: 49 nM
BB3 [2]; [4]
  EC50: 646 nM
BB3 [3]; [7]
  EC50: 224 nM

## CSCC[C@H](NC(=O)[C@H](Cc1ccccc1)NC(=O)CNC(=O)CNC(=O)[C@@H](N)Cc1ccc(O)cc1)C(=O)O [158.1 (Phoenix)]
BB3 [1]; DMR assays pEC50, receptor BB3
  EC50: 64.6 nM
BB3 [3]; [5]
  EC50: 12.6 nM

## CC(C)C[C@H](NC(=O)[C@H](CCCCN)NC(=O)[C@H](CCC(N)=O)NC(=O)[C@@H](NC(=O)[C@H](CCCCN)NC(=O)[C@H](CO)NC(=O)[C@H](Cc1ccc(O)cc1)NC(=O)[C@H](Cc1c[nH]cn1)NC(=O)[C@H](Cc1ccccc1)NC(=O)[C@H](CC(C)C)NC(=O)[C@@H](N)Cc1ccccc1)[C@@H](C)O)C(=O)NCC(=O)N[C@@H](CCCCN)C(=O)N[C@@H](CO)C(=O)N[C@@H](CC(N)=O)C(=O)N[C@H](C(=O)N[C@H](C(=O)N[C@@H](CO)C(=O)N[C@@H](CO)C(=O)N[C@H](C(=O)N[C@H](C(=O)N[C@@H](Cc1c[nH]cn1)C(=O)N1CCC[C@H]1C(=O)N[C@@H](CC(C)C)C(=O)N[C@@H](CC(C)C)C(=O)N[C@@H](CCC(N)=O)C(=O)N[C@@H](CC(C)C)C(=O)N[C@H](C(=O)N1CCC[C@H]1C(=O)N[C@@H](Cc1c[nH]cn1)C(=O)N[C@@H](CC(C)C)C(=O)N[C@@H](Cc1c[nH]cn1)C(=O)N[C@@H](CCC(=O)O)C(=O)O)C(C)C)C(C)C)C(C)C)C(C)C)C(C)C [Peptide 67.1] (H-FLFHYSKTQKLGKSNVVSSVVHPLLQLVPHLHE-OH)
BB3 [1]; [6]
  EC50: 32400 nM
BB3 [3]; [7]
  EC50: 4270 nM

## CSCC[C@H](NC(=O)[C@H](CCCNC(=N)N)NC(=O)[C@H](CCCNC(=N)N)NC(=O)[C@H](CCC(=O)O)NC(=O)[C@H](Cc1c[nH]cn1)NC(=O)[C@H](CC(C)C)NC(=O)[C@H](Cc1c[nH]cn1)NC(=O)[C@@H]1CCCN1C(=O)[C@@H](NC(=O)[C@H](CC(C)C)NC(=O)[C@H](CCC(N)=O)NC(=O)[C@H](CC(C)C)NC(=O)[C@H](CC(C)C)NC(=O)[C@@H]1CCCN1C(=O)[C@H](Cc1c[nH]cn1)NC(=O)[C@@H](NC(=O)[C@@H](NC(=O)[C@H](CO)NC(=O)[C@H](CO)NC(=O)[C@@H](NC(=O)[C@@H](NC(=O)[C@H](CC(N)=O)NC(=O)[C@H](CO)NC(=O)[C@H](CCCCN)NC(=O)CNC(=O)[C@H](CC(C)C)NC(=O)[C@H](CCCCN)NC(=O)[C@H](CCC(N)=O)NC(=O)[C@@H](NC(=O)[C@H](CCCCN)NC(=O)[C@H](CO)NC(=O)[C@H](Cc1ccc(O)cc1)NC(=O)[C@H](Cc1c[nH]cn1)NC(=O)[C@H](Cc1ccccc1)NC(=O)[C@H](CC(C)C)NC(=O)[C@@H](N)Cc1ccccc1)[C@@H](C)O)C(C)C)C(C)C)C(C)C)C(C)C)C(C)C)C(=O)O [Peptide 67.2] (H-FLFHYSKTQKLGKSNVVSSVVHPLLQLVPHLHERRM-OH)
BB3 [1]; [6]
  EC50: 38000 nM
BB3 [3]; [7]
  EC50: 1170 nM

## CC(C)C[C@H](NC(=O)[C@H](CCCCN)NC(=O)[C@H](CCC(N)=O)NC(=O)[C@@H](NC(=O)[C@H](CCCCN)NC(=O)[C@H](CO)NC(=O)[C@H](Cc1ccc(O)cc1)NC(=O)[C@H](Cc1c[nH]cn1)NC(=O)[C@H](Cc1ccccc1)NC(=O)[C@H](CC(C)C)NC(=O)[C@@H](N)Cc1ccccc1)[C@@H](C)O)C(N)=O [Peptide 67] (H-FLFHYSKTQKL-NH2; N-terminus assumed)
BB3 [2]; SNAP-tagged BB3 in Flp-In T-REx 293 cells, TR-FRET 60 min, 37°C, AUC, mean ± SEM of 3-4 independent experiments in triplicate, read-out: pEC50, internalization, BB3 (converted)
  EC50: > 10000 nM

## CC[C@H](C)[C@H](NC(=O)[C@H](CC(=O)O)NC(=O)[C@@H](NC(=O)[C@H](Cc1ccc(O)cc1)NC(=O)[C@@H](NC(=O)CNC(=O)[C@H](CC(N)=O)NC(=O)[C@@H](NC(=O)[C@H](CC(C)C)NC(=O)[C@H](Cc1ccc(O)cc1)NC(=O)[C@H](CC(=O)O)NC(=O)[C@H](CC(C)C)NC(=O)[C@H](CCCNC(=N)N)NC(=O)[C@H](CO)NC(=O)[C@H](Cc1ccc(O)cc1)NC(=O)[C@H](CCCNC(=N)N)NC(=O)[C@@H](N)CCCCN)[C@@H](C)CC)[C@@H](C)CC)C(C)C)C(=O)O [Peptide 114] (H-KRYSRLDYLINGIYVDI-OH; N-terminus assumed)
GPR55; read-out: pEC50, internalization, GPR55 (converted)
  EC50: > 10000 nM

## CSCC[C@H](NC(=O)[C@H](Cc1ccccc1)NC(=O)CNC(=O)CNC(=O)[C@@H](N)Cc1ccc(O)cc1)C(=O)N[C@@H](CCCNC(=N)N)C(=O)N[C@@H](CCCNC(=N)N)C(=O)N[C@H](C(N)=O)C(C)C [Peptide 158.3]
BB3 [1]; DMR assays pEC50, receptor BB3
  EC50: 15500 nM
BB3 [3]; [5]
  EC50: 89.1 nM

## CSCC[C@H](NC(=O)[C@H](Cc1ccccc1)NC(=O)CNC(=O)CNC(=O)[C@@H](N)Cc1ccc(O)cc1)C(=O)N[C@@H](CCCNC(=N)N)C(=O)N[C@@H](CCCNC(=N)N)C(=O)N[C@H](C(=O)NCC(=O)N[C@@H](CCCNC(=N)N)C(=O)N1CCC[C@H]1C(=O)N[C@@H](CCC(=O)O)C(=O)N[C@@H](Cc1c[nH]c2ccccc12)C(=O)N[C@@H](Cc1c[nH]c2ccccc12)C(=O)N[C@@H](CCSC)C(=O)N[C@@H](CC(=O)O)C(=O)N[C@@H](Cc1ccc(O)cc1)C(=O)N[C@@H](CCC(N)=O)C(=O)O)C(C)C [Peptide 158.5] (H-YGGFMRRVGRPEWWMDYQ-OH)
BB3 [1]; DMR assays pEC50, receptor BB3
  EC50: 69200 nM
BB3 [3]; [5]
  EC50: 100 nM

## CC(C)C[C@H](NC(=O)[C@@H](NC(=O)[C@H](C)NC(=O)[C@H](C)NC(=O)[C@H](CC(C)C)NC(=O)[C@@H](N)Cc1ccc(O)cc1)C(C)C)C(N)=O [Peptide 168.2] (H-YLAAVL-NH2)
GPR55; [8]
  EC50: 20400 nM

## CSCC[C@H](NC(=O)[C@@H](N)CCC(N)=O)C(=O)N[C@@H](C)C(=O)N[C@H](C(=O)N[C@@H](CCCCN)C(=O)N[C@@H](CCCCN)C(=O)N[C@@H](Cc1ccc(O)cc1)C(=O)N[C@@H](CC(C)C)C(=O)N[C@@H](C)C(=O)N[C@@H](C)C(=O)N[C@H](C(=O)N[C@@H](CC(C)C)C(N)=O)C(C)C)C(C)C [Peptide 168.3]
GPR55; [8]
  EC50: 0.219 nM

## CC[C@H](C)[C@H](NC(=O)CNC(=O)[C@H](CC(=O)O)NC(=O)[C@H](CO)NC(=O)[C@@H](N)Cc1c[nH]cn1)C(=O)N[C@@H](Cc1ccccc1)C(=O)N[C@H](C(=O)N[C@@H](CC(=O)O)C(=O)N[C@@H](CO)C(=O)N[C@@H](Cc1ccc(O)cc1)C(=O)N[C@@H](CO)C(=O)N[C@@H](CCCNC(=N)N)C(=O)N[C@@H](Cc1ccc(O)cc1)C(=O)O)[C@@H](C)O [Peptide 168.4] (H-HSDGIFTDSYSRY-OH)
GPR55; [8]
  EC50: 316 nM

## YGGFMRRVGRPEWWMDYQKRYGGFL [158 original]
BB3 [2]; receptor BB3, mean, SEM and n (3)
  Internalization assays Emax (AUC): 16.0
BB3 [3]; receptor BB3
  IP1 accumulation assays Emax: 164.0 nM
